Several values for one entry are separate records, joined by “and”; a condition that tells them apart may be missing. Equal entries are not always repeated.
target: T1, rSjTGR-Sec (Schistosoma japonicum, UniProt B5THG7); assay: Inhibition of TrxR activity of rSjTGR-Sec (DTNB reduction, absorbance 412 nm); type: biochemical; settings: DTNB, pH 7.0, 25 °C, triplicate, >50 μM = flat response within range tested, read-out: IC50 of rSjTGR-Sec
T1 sequence (B5THG7 1-596): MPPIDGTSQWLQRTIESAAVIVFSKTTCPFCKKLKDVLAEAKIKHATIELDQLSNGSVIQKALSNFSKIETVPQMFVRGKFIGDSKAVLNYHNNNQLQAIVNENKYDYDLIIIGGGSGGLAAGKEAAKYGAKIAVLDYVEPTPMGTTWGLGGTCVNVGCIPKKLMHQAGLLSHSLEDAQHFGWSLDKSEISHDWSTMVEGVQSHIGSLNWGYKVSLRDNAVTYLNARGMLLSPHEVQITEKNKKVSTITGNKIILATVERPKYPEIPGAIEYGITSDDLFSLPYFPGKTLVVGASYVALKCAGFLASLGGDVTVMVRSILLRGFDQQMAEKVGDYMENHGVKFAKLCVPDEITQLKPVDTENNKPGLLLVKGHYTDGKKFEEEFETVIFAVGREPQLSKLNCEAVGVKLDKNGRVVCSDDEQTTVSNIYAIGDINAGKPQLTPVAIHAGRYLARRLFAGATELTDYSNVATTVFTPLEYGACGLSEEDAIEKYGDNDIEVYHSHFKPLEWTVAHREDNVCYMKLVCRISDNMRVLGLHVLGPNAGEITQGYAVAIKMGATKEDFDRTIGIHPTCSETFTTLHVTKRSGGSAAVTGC
Method: The rSjTGR-Sec was expressed and harvested as described previously. […] The rSjTGR-Sec was purified by His Mag™ Agarose beads according to manufacturer’s instructions. The concentration of purified rSjTGR-Sec was determined using a Bradford assay kit (Sangon, China), and the protein was identified by sodium dodecyl sulfate polyacrylamide gel electrophoresis (SDS-PAGE) and stored at 4 °C [20].
The novel furoxan derivatives in this work were dissolved in DMSO with a storage solution concentration of 64 millimoles per liter. The analysis of TrxR activity of SWAP containing wtSjTGR and rSjTGR-Sec was performed based on methods described previously. Analysis of the inhibitory activity of the compounds against the TrxR activity of SWAP containing wtSjTGR and rSjTGR-Sec described in this paper was also based on a previously described method. The reaction was performed in 0.1 M potassium phosphate buffer (pH 7.0) containing 10 mM EDTA, 100 µM nicotinamide adenine dinucleotide phosphate (NADPH), 0.2 µg supernatant of SWAP containing wtSjTGR or 0.6 µg rSjTGR-Sec, and the studied compounds with different concentrations at 25 °C in a final volume of 200 μL, and was initiated by adding 3 mM DTNB. […] All assays were done in triplicate.

Compound	IC50
[O-][n+]1onc(-c2ccncc2)c1CO [6a, 3-(hydroxymethyl)-4-(pyridin-4-yl)-1,2,5-oxadiazole 2-oxide]	0.036 ± 0.002 µM
[O-][n+]1onc(-c2cccnc2)c1CO [6b, 3-(hydroxymethyl)-4-(pyridin-3-yl)-1,2,5-oxadiazole 2-oxide]	0.39 ± 0.02 µM
COc1ccc(-c2no[n+]([O-])c2CO)cn1 [6c, 3-(hydroxymethyl)-4-(6-methoxypyridin-3-yl)-1,2,5-oxadi-azole 2-oxide]	2.4 µM and 2.38 µM
[O-][n+]1onc(-c2ccc(C(F)(F)F)nc2)c1CO [6d, 3-(hydroxymethyl)-4-(6-(trifluoromethyl)pyridine-3-yl)-1,2,5-oxadiazole 2-oxide]	0.0558 ± 0.00318 µM
CC(=O)OCc1c(-c2ccncc2)no[n+]1[O-] [7aa, 3-(acetoxymethyl)-4-(pyridin-4-yl)-1,2,5-oxadiazole 2-oxide]	> 50 µM
CCC(=O)OCc1c(-c2ccncc2)no[n+]1[O-] [7ab, 3-((propionyloxy)methyl)-4-(pyridin-4-yl)-1,2,5-oxadiazole 2-oxide]	> 50 µM
CCCC(=O)OCc1c(-c2ccncc2)no[n+]1[O-] [7ac, 3-((butyryloxy)methyl)-4-(pyridin-4-yl)-1,2,5-oxadiazole 2-oxide]	> 50 µM
CC(C)(C)C(=O)OCc1c(-c2ccncc2)no[n+]1[O-] [7ad, 3-((pivaloyloxy)methyl)-4-(pyridin-4-yl)-1,2,5-oxadiazole 2-oxide]	> 50 µM
O=C(CCl)OCc1c(-c2ccncc2)no[n+]1[O-] [7ae, 3-((2-chloroacetoxy)methyl)-4-(pyridin-4-yl)-1,2,5-oxadiazole 2-oxide]	> 50 µM
O=C(OCc1c(-c2ccncc2)no[n+]1[O-])c1ccccc1 [7af, 3-((benzoyloxy)methyl)-4-(pyridin-4-yl)-1,2,5-oxadiazole 2-oxide]	3.23 ± 0.05 µM
O=C(OCc1c(-c2ccncc2)no[n+]1[O-])c1ccc(F)cc1 [7ag, 3-(((4-fluorobenzoyl)oxy)methyl)-4-(pyridin-4-yl)-1,2,5-oxadiazole 2-oxide]	> 50 µM
O=C(OCc1c(-c2ccncc2)no[n+]1[O-])c1c(F)c(F)c(F)c(F)c1F [7ah, 3-(((perfluorobenzoyl)oxy)methyl)-4-(pyridin-4-yl)-1,2,5-oxadiazole 2-oxide]	> 50 µM
O=C(OCc1c(-c2ccncc2)no[n+]1[O-])c1cc(C(F)(F)F)cc(C(F)(F)F)c1 [7ai, 3-(((3,5-bis(trifluoromethyl)benzoyl)oxy)methyl)-4-(pyridin-4-yl)-1,2,5-oxadiazole 2-oxide]	> 50 µM
CC(=O)OCc1c(-c2cccnc2)no[n+]1[O-] [7ba, 3-(acetoxymethyl)-4-(pyridin-3-yl)-1,2,5-oxadiazole 2-oxide]	> 50 µM
O=C(CCl)OCc1c(-c2cccnc2)no[n+]1[O-] [7be, 3-((2-chloroacetoxy)methyl)-4-(pyridin-3-yl)-1,2,5-oxadiazole 2-oxide]	14.8 ± 3.67 µM
COc1ccc(-c2no[n+]([O-])c2COC(C)=O)cn1 [7ca, 3-(acetoxymethyl)-4-(6-methoxypyridin-3-yl)-1,2,5-oxadiazole 2-oxide]	> 50 µM
CC(=O)OCc1c(-c2ccc(C(F)(F)F)nc2)no[n+]1[O-] [7da, 3-(acetoxymethyl)-4-(6-(trifluoromethyl)pyridin-3-yl)-1,2,5-oxadiazole 2-oxide]	> 50 µM

Second part, the compound after the results:

IC50	Compound
> 50 µM	CCC(=O)OCc1c(-c2cccnc2)no[n+]1[O-] [7bb, 3-((propionyloxy)methyl)-4-(pyridin-3-yl)-1,2,5-oxadiazole 2-oxide]
> 50 µM	CCCC(=O)OCc1c(-c2cccnc2)no[n+]1[O-] [7bc, 3-((butyryloxy)methyl)-4-(pyridin-3-yl)-1,2,5-oxadiazole 2-oxide]
> 50 µM	CC(C)(C)C(=O)OCc1c(-c2cccnc2)no[n+]1[O-] [7bd, 3-((pivaloyloxy)methyl)-4-(pyridin-3-yl)-1,2,5-oxadiazole 2-oxide]
> 50 µM	O=C(OCc1c(-c2cccnc2)no[n+]1[O-])c1ccccc1 [7bf, 3-((benzoyloxy)methyl)-4-(pyridin-3-yl)-1,2,5-oxadiazole 2-oxide]
> 50 µM	O=C(OCc1c(-c2cccnc2)no[n+]1[O-])c1ccc(F)cc1 [7bg, 3-(((4-fluorobenzoyl)oxy)methyl)-4-(pyridine-3-yl)-1,2,5-oxadiazole 2-oxide]
> 50 µM	O=C(OCc1c(-c2cccnc2)no[n+]1[O-])c1c(F)c(F)c(F)c(F)c1F [7bh, 3-(((perfluorobenzoyl)oxy)methyl)-4-(pyridine-3-yl)-1,2,5-oxadiazole 2-oxide]
> 50 µM	O=C(OCc1c(-c2cccnc2)no[n+]1[O-])c1cc(C(F)(F)F)cc(C(F)(F)F)c1 [7bi, 3-(((3,5-bis(trifluoromethyl)benzoyl)oxy)methyl)-4-(pyridin-3-yl)-1,2,5-oxadiazole 2-oxide]
> 50 µM	C=CC(=O)OCc1c(-c2cccnc2)no[n+]1[O-] [7bj, 3-((acryloyloxy)methyl)-4-(pyridin-3-yl)-1,2,5-oxadiazole 2-oxide]
> 50 µM	O=C(OCc1c(-c2cccnc2)no[n+]1[O-])c1cccs1 [7bk, 4-(pyridin-3-yl)-3-(((thiophene-2-carbonyl)oxy)methyl) -1,2,5-oxadiazole 2-oxide]
> 50 µM	COc1ccc(-c2no[n+]([O-])c2COC(=O)c2ccccc2)cn1 [7cf, 3-((benzoyloxy)methyl)-4-(6-methoxypyridin-3-yl)-1,2,5-oxadiazole 2-oxide]
> 50 µM	O=C(OCc1c(-c2ccc(C(F)(F)F)nc2)no[n+]1[O-])c1ccccc1 [7df, 3-((benzoyloxy)methyl)-4-(6-(trifluoromethyl)pyridin-3-yl)-1,2,5-oxadiazole 2-oxide]
> 50 µM	[O-][n+]1onc(-c2ccncc2)c1CNc1ccccc1 [9aa, 3-((phenylamino)methyl)-4-(pyridin-4-yl)-1,2,5-oxad-iazole 2-oxide]
1.52 ± 0.2 µM	[O-][n+]1onc(-c2ccncc2)c1CNc1ccc(OC(F)(F)F)cc1 [9ab, 4-(pyridin-4-yl)-3-(((4-(trifluoromethoxy)phenyl)amino)methyl)-1,2,5-oxadiazole 2-oxide]
> 50 µM	[O-][n+]1onc(-c2ccncc2)c1CN1CCN(c2ccc(F)cc2)CC1 [9ac, 3-((4-(4-fluorophenyl)piperazin-1-yl)methyl)-4-(pyridin-4-yl)-1,2,5-oxadiazole 2-oxide]
> 50 µM	[O-][n+]1onc(-c2ccncc2)c1CN1CCN(c2cccc(C(F)(F)F)c2)CC1 [9ad, 4-(pyridin-4-yl)-3-((4-(3-(trifluoromethyl)phenyl)piperazin-1-yl)methyl)-1,2,5-oxadiazole 2-oxide]
> 50 µM	[O-][n+]1onc(-c2cccnc2)c1CNc1ccccc1 [9ba, 3-((phenylamino)methyl)-4-(pyridin-3-yl)-1,2,5-oxadiazole 2-oxide]
> 50 µM	[O-][n+]1onc(-c2cccnc2)c1CNc1ccc(OC(F)(F)F)cc1 [9bb, 4-(pyridin-3-yl)-3-(((4-(trifluoromethoxy)phenyl)amino)methyl)-1,2,5-oxadiazole 2-oxide]
> 50 µM	[O-][n+]1onc(-c2cccnc2)c1CN1CCN(c2ccc(F)cc2)CC1 [9bc, 3-((4-(4-fluorophenyl)piperazin-1-yl)methyl)-4-(pyridin-3-yl)-1,2,5-oxadiazole 2-oxide]
> 50 µM	COc1ccc(-c2no[n+]([O-])c2CNc2ccccc2)cn1 [9ca, 4-(6-methoxypyridin-3-yl)-3-((phenylamino)methyl)-1,2,5-oxadiazole 2-oxide]
3.73 ± 1.67 µM	[O-][n+]1onc(-c2ccc(C(F)(F)F)nc2)c1CNc1ccccc1 [9da, 3-((phenylamino)methyl)-4-(6-(trifluoromethyl)pyridin-3-yl)-1,2,5-oxadiazole 2-oxide]

same assay, conditions: IC50 of rSjTGR-Sec, DTNB, pH 7.0, 25 °C, triplicate, >50 μM = flat response within range tested

Compound	IC50
Cc1ccc(S(=O)(=O)N(Cc2c(-c3cccnc3)no[n+]2[O-])O[Si](C)(C)C(C)(C)C)cc1 [9be, 3-(((N-((tert-butyldimethylsilyl)oxy)-4-methylphenyl)sulfonamido)methyl)-4-(pyridin-3-yl)-1,2,5-oxadiazole 2-oxide]	0.22 ± 0.01 µM
N#Cc1c(-c2ccccc2)no[n+]1[O-] [Furoxan, reference compound]	5.87 ± 1.37 µM

same assay, conditions: furoxan as positive control

Compound	inhibitory effect on rSjTGR-Sec (in words)
O=C(CCl)OCc1c(-c2ccncc2)no[n+]1[O-] [7ae, 3-((2-chloroacetoxy)methyl)-4-(pyridin-4-yl)-1,2,5-oxadiazole 2-oxide]	did not show an effective inhibitory effect
COc1ccc(-c2no[n+]([O-])c2COC(=O)c2ccccc2)cn1 [7cf, 3-((benzoyloxy)methyl)-4-(6-methoxypyridin-3-yl)-1,2,5-oxadiazole 2-oxide]	did not show an inhibitory effect

same assay, conditions: read-out: IC50 of rSjTGR-Sec

IC50	Compound
0.036 µM	[O-][n+]1onc(-c2ccncc2)c1CO [6a, 3-(hydroxymethyl)-4-(pyridin-4-yl)-1,2,5-oxadiazole 2-oxide]
0.0075 µM and 0.0558 µM	[O-][n+]1onc(-c2ccc(C(F)(F)F)nc2)c1CO [6d, 3-(hydroxymethyl)-4-(6-(trifluoromethyl)pyridine-3-yl)-1,2,5-oxadiazole 2-oxide]
